Here are results for ten molecules from the NIST ThermoML archive (doi:10.1016/j.fluid.2009.12.002).

Data set [1] can be described thus: xn = mol fraction of the nth substance listed. The settings on record: Liquid, Vibrating tube method.
The conditions of data set [2]: for mass density: Vibrating tube method; for vapor or sublimation pressure: isothermal bubble-point pressure.

Numbers after ± are expanded uncertainties.

By mass density is commonly meant mass per unit of volume. `CNC=O` [N-methylformamide] + Cc1ccccc1C: the mass density came out at 967.461 ± 0.23 kg/m3 in data set [1] (333.15 K, x2 = 0); 958.765 ± 0.23 kg/m3 in data set [1] (343.15 K, x2 = 0); 949.98 ± 0.23 kg/m3 in data set [1] (353.15 K, x2 = 0).

Turning to `Cc1ccc(C)cc1` [1,4-dimethylbenzene] + CNC=O, the mass density in data set [1] (333.15 K, x1 = 1) is 825.539 ± 0.24 kg/m3; in data set [1] (343.15 K, x1 = 1), 816.664 ± 0.24 kg/m3; in data set [1] (353.15 K, x1 = 1), 807.649 ± 0.24 kg/m3.

For the molecule `Cc1cccc(C)c1` [1,3-dimethylbenzene] + CNC=O, the mass density in data set [1] (333.15 K, x1 = 1) amounted to 829.305 ± 0.24 kg/m3; in data set [1] (343.15 K, x1 = 1), 820.443 ± 0.24 kg/m3; in data set [1] (353.15 K, x1 = 1) it was 811.602 ± 0.24 kg/m3.

What is called vapor or sublimation pressure is the equilibrium pressure above the liquid or solid. With `CNC=O` [N-methylformamide], the mass density was 967.461 ± 0.23 kg/m3 in data set [2] (333.15 K, Liquid); 958.765 ± 0.23 kg/m3 in data set [2] (343.15 K, Liquid); 949.98 ± 0.23 kg/m3 in data set [2] (353.15 K, Liquid). Besides, the “vapor or sublimation pressure” value turned out to be 0.37 ± 0.02 kPa in data set [2] (333.15 K, Liquid); 0.67 ± 0.02 kPa in data set [2] (343.15 K, Liquid); 1.15 ± 0.02 kPa in data set [2] (353.15 K, Liquid).

For the molecule `Cc1cccc(C)c1` [1,3-dimethylbenzene], the mass density in data set [2] (333.15 K, Gas) turned out to be 0.2519 ± 0.1 kg/m3; in data set [2] (333.15 K, Liquid), 829.305 ± 0.24 kg/m3; in data set [2] (343.15 K, Gas), 0.3779 ± 0.1 kg/m3; in data set [2] (343.15 K, Liquid), 820.443 ± 0.24 kg/m3; in data set [2] (353.15 K, Gas), 0.5457 ± 0.1 kg/m3; in data set [2] (353.15 K, Liquid), 811.602 ± 0.24 kg/m3. In addition, the “vapor or sublimation pressure” value is 6.58 ± 0.03 kPa in data set [2] (333.15 K, Liquid); 10.17 ± 0.03 kPa in data set [2] (343.15 K, Liquid); 15.12 ± 0.04 kPa in data set [2] (353.15 K, Liquid).

Regarding `CNC=O` [N-methylformamide] + Cc1ccc(C)cc1, the mass density in data set [1] (333.15 K, x2 = 0) came out at 967.461 ± 0.23 kg/m3; in data set [1] (343.15 K, x2 = 0), 958.765 ± 0.23 kg/m3; in data set [1] (353.15 K, x2 = 0), 949.98 ± 0.23 kg/m3.

`Cc1ccc(C)cc1` [1,4-dimethylbenzene]: the mass density in data set [2] (333.15 K, Gas) is on record as 0.262 ± 0.1 kg/m3; in data set [2] (333.15 K, Liquid), 825.539 ± 0.24 kg/m3; in data set [2] (343.15 K, Gas) it was 0.3903 ± 0.1 kg/m3; in data set [2] (343.15 K, Liquid) it was 816.664 ± 0.24 kg/m3; in data set [2] (353.15 K, Gas) it was 0.5636 ± 0.1 kg/m3; in data set [2] (353.15 K, Liquid), 807.649 ± 0.24 kg/m3. Also, the “vapor or sublimation pressure” value in data set [2] (333.15 K, Liquid) amounted to 6.85 ± 0.03 kPa; in data set [2] (343.15 K, Liquid) it was 10.5 ± 0.03 kPa; in data set [2] (353.15 K, Liquid) it was 15.61 ± 0.04 kPa.

On to `Cc1ccccc1C` [1,2-dimethylbenzene], for which the mass density in data set [2] (333.15 K, Gas) is reported as 0.2087 ± 0.1 kg/m3; in data set [2] (333.15 K, Liquid), 845.839 ± 0.23 kg/m3; in data set [2] (343.15 K, Gas) it was 0.3149 ± 0.1 kg/m3; in data set [2] (343.15 K, Liquid), 837.399 ± 0.23 kg/m3; in data set [2] (353.15 K, Gas), 0.4587 ± 0.1 kg/m3; in data set [2] (353.15 K, Liquid) it was 828.528 ± 0.24 kg/m3. In addition, the “vapor or sublimation pressure” value was determined as 5.45 ± 0.02 kPa in data set [2] (333.15 K, Liquid); 8.47 ± 0.03 kPa in data set [2] (343.15 K, Liquid); 12.71 ± 0.03 kPa in data set [2] (353.15 K, Liquid).

In the case of `CNC=O` [N-methylformamide] + Cc1cccc(C)c1, the mass density is recorded as 967.461 ± 0.23 kg/m3 in data set [1] (333.15 K, x2 = 0); 958.765 ± 0.23 kg/m3 in data set [1] (343.15 K, x2 = 0); 949.98 ± 0.23 kg/m3 in data set [1] (353.15 K, x2 = 0).

`Cc1ccccc1C` [1,2-dimethylbenzene] + CNC=O: the mass density amounted to 845.839 ± 0.23 kg/m3 in data set [1] (333.15 K, x1 = 1); 837.399 ± 0.23 kg/m3 in data set [1] (343.15 K, x1 = 1); 828.528 ± 0.24 kg/m3 in data set [1] (353.15 K, x1 = 1).
